Test results taken from patent US11702404B2, “GLP-1R modulating compounds” (priority 2019, dated 2023).

What was measured:
GLP-1R = GLP-1R (Homo sapiens, UniProt P43220); experiment: GLP-1R activation: cAMP increase in CHO cells stably expressing GLP-1R; assay type: cell-based; settings: cAMP increase, CHO cells stably expressing GLP-1R, 10 point dose response, 30 minutes incubation; read-out: EC50
[1] = Microsomal stability, human liver microsomes (predicted hepatic clearance); settings: predicted from in vitro microsomal stability data

Sequence of GLP-1R (P43220 24-463): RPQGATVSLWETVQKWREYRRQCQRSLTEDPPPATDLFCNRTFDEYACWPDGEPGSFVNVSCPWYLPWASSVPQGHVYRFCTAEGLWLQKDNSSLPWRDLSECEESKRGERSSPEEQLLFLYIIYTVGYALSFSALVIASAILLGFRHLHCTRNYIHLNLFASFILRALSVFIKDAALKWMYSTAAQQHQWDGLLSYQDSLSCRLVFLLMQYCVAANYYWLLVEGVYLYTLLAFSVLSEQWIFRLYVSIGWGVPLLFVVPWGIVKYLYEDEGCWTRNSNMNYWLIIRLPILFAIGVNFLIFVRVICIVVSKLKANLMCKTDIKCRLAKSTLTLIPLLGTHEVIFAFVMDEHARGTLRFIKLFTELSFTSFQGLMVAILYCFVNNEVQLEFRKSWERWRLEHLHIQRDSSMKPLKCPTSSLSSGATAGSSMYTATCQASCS

Compound	EC50 (GLP-1R) [µM]	Predicted Hepatic Clearance (Pred. Cl.) [1] [L/h/kg]
N#Cc1ccc(COc2cccc(-c3cc(F)c(Cc4nc5ccc(C(=O)O)cc5n4Cc4cnccn4)cc3F)n2)c(F)c1 [Example 310, 2-(4-(6-((4-cyano-2-fluorobenzyl)oxy)pyridin-2-yl)-2,5-difluorobenzyl)-1-(pyrazin-2-ylmethyl)-1H-benzo[d]imidazole-6-carboxylic acid]	0.0163	0.38
N#Cc1ccc(COc2cccc(-c3cc(F)c(Cc4nc5ccc(C(=O)O)cc5n4Cc4ccccn4)cc3F)n2)c(F)c1 [Example 311, 2-(4-(6-((4-cyano-2-fluorobenzyl)oxy)pyridin-2-yl)-2,5-difluorobenzyl)-1-(pyridin-2-ylmethyl)-1H-benzo[d]imidazole-6-carboxylic acid]	0.0956	0.42
N#Cc1ccc(COc2cccc(-c3cc(F)c(Cc4nc5ccc(C(=O)O)cc5n4Cc4ccc[nH]c4=O)cc3F)n2)c(F)c1 [Example 312, 2-(4-(6-((4-cyano-2-fluorobenzyl)oxy)pyridin-2-yl)-2,5-difluorobenzyl)-1-((2-oxo-1,2-dihydropyridin-3-yl)methyl)-1H-benzo[d]imidazole-6-carboxylic acid]	0.25	0.28
N#Cc1ccc(COc2cccc(-c3ccc(Cc4nc5ccc(C(=O)O)cc5n4CC4(n5cncn5)CC4)c(F)c3)n2)c(F)c1 [Example 313, 1-((1-(1H-1,2,4-triazol-1-yl)cyclopropyl)methyl)-2-(4-(6-((4-cyano-2-fluorobenzyl)oxy)pyridin-2-yl)-2-fluorobenzyl)-1H-benzo[d]imidazole-6-carboxylic acid]	0.00325	0.43
N#Cc1ccc(COc2cccc(-c3ccc(Cc4nc5ccc(C(=O)O)cc5n4CC4(O)COC4)c(F)c3)n2)c(F)c1 [Example 316, 2-(4-(6-((4-cyano-2-fluorobenzyl)oxy)pyridin-2-yl)-2-fluorobenzyl)-1-((3-hydroxyoxetan-3-yl)methyl)-1H-benzo[d]imidazole-6-carboxylic acid]	0.014	0.28
N#Cc1ccc(COc2nccc(-c3cc(F)c(Cc4nc5ccc(C(=O)O)cc5n4CC4(CF)CC4)c(F)c3)n2)c(F)c1 [Example 317, 2-(4-(2-((4-cyano-2-fluorobenzyl)oxy)pyrimidin-4-yl)-2,6-difluorobenzyl)-1-((1-(fluoromethyl)cyclopropyl)methyl)-1H-benzo[d]imidazole-6-carboxylic acid]	0.00105	0.16
O=C(O)c1ccc2nc(Cc3ccc(-c4ccnc(OCc5ccc(Cl)cc5F)n4)c(F)c3)n(CC3(CF)CC3)c2n1 [Example 318, 2-(4-(2-((4-chloro-2-fluorobenzyl)oxy)pyrimidin-4-yl)-3-fluorobenzyl)-3-((1-(fluoromethyl)cyclopropyl)methyl)-3H-imidazo[4,5-b]pyridine-5-carboxylic acid]	0.00107	<0.11
N#Cc1ccc(COc2cccc(-c3cc(F)c(Cc4nc5ccc(C(=O)O)nc5n4CC4(CF)CC4)c(F)c3)n2)c(F)c1 [Example 319, 2-(4-(6-((4-cyano-2-fluorobenzyl)oxy)pyridin-2-yl)-2,6-difluorobenzyl)-3-((1-(fluoromethyl)cyclopropyl)methyl)-3H-imidazo[4,5-b]pyridine-5-carboxylic acid]	0.00243	<0.11
COCCn1c(Cc2ccc(-c3ccc(F)c(OCc4ccc(C#N)cc4F)n3)c(F)c2)nc2ccc(C(=O)O)cc21 [Example 320, 2-(4-(6-((4-cyano-2-fluorobenzyl)oxy)-5-fluoropyridin-2-yl)-3-fluorobenzyl)-1-(2-methoxyethyl)-1H-benzo[d]imidazole-carboxylic acid]	0.018	0.25
O=C(O)c1ccc2nc(Cc3ccc(-c4cccc(OCc5ccc(Cl)cc5F)n4)c(F)c3)n(CC3(CF)CC3)c2n1 [Example 321, 2-(4-(6-((4-chloro-2-fluorobenzyl)oxy)pyridin-2-yl)-3-fluorobenzyl)-3-((1-(fluoromethyl)cyclopropyl)methyl)-3H-imidazo[4,5-b]pyridine-5-carboxylic acid]	0.00027	0.38
COc1cc(C#N)ccc1COc1nccc(-c2ccc(Cc3nc4ccc(C(=O)O)nc4n3CC3(CF)CC3)cc2F)n1 [Example 322, 2-(4-(2-((4-cyano-2-methoxybenzyl)oxy)pyrimidin-4-yl)-3-fluorobenzyl)-3-((1-(fluoromethyl)cyclopropyl)methyl)-3H-imidazo[4,5-b]pyridine-5-carboxylic acid]	0.00058	0.74
N#Cc1ccc(COc2cccc(-c3cc(F)c(Cc4nc5ccc(C(=O)O)cc5n4CCOC(F)F)cc3F)n2)c(F)c1 [Example 325, 2-(4-(6-((4-cyano-2-fluorobenzyl)oxy)pyridin-2-yl)-2,5-difluorobenzyl)-1-(2-(difluoromethoxy)ethyl)-1H-benzo[d]imidazole-6-carboxylic acid]	0.00161	0.34
N#Cc1ccc(COc2cccc(-c3ccc(Cc4nc5ccc(C(=O)O)cc5n4CC4(CO)COC4)c(F)c3)n2)c(F)c1 [Example 326, 2-(4-(6-((4-cyano-2-fluorobenzyl)oxy)pyridin-2-yl)-2-fluorobenzyl)-1-((3-(hydroxymethyl)oxetan-3-yl)methyl)-1H-benzo[d]imidazole-6-carboxylic acid]	0.00681	0.74
N#Cc1ccc(COc2nccc(-c3ccc(Cc4nc5ccc(C(=O)O)cc5n4CC4(CF)CC4)c(F)c3)n2)c(F)c1 [Example 344, 2-(4-(2-((4-cyano-2-fluorobenzyl)oxy)pyrimidin-4-yl)-2-fluorobenzyl)-1-((1-(fluoromethyl)cyclopropyl)methyl)-1H-benzo[d]imidazole-6-carboxylic acid]	0.00156	<0.11
COCCn1c(Cc2ccc(-c3cccc(OCc4cccc5c4OCCO5)n3)cc2F)nc2ccc(C(=O)O)cc21 [Example 348, 2-(4-(6-((2,3-dihydrobenzo[b][1,4]dioxin-5-yl)methoxy)pyridin-2-yl)-2-fluorobenzyl)-1-(2-methoxyethyl)-1H-benzo[d]imidazole-6-carboxylic acid]	0.0481	0.57

The remaining lines, values ahead:

EC50 (GLP-1R) [µM]	Predicted Hepatic Clearance (Pred. Cl.) [1] [L/h/kg]	Compound
0.0125	0.3	COCCn1c(Cc2cc(Cl)c(-c3cccc(OCc4ccc(C#N)cc4F)n3)cc2F)nc2ccc(C(=O)O)cc21 [Example 314, 2-(5-chloro-4-(6-((4-cyano-2-fluorobenzyl)oxy)pyridin-2-yl)-2-fluorobenzyl)-1-(2-methoxyethyl)-1H-benzo[d]imidazole-6-carboxylic acid]
0.00208	0.34	N#Cc1ccc(COc2cccc(-c3ccc(Cc4nc5c(F)cc(C(=O)O)cc5n4CC4(C#N)CC4)c(F)c3)n2)c(F)c1 [Example 315, 2-(4-(6-((4-cyano-2-fluorobenzyl)oxy)pyridin-2-yl)-2-fluorobenzyl)-1-((l-cyanocyclopropyl)methyl)-4-fluoro-1H-benzo[d]imidazole-6-carboxylic acid]
0.0275	0.26	N#Cc1ccc(COc2cccc(-c3ccc(Cc4nc5ccc(C(=O)O)cc5n4CCOC(F)(F)F)c(F)c3)n2)c(F)c1 [Example 323, 2-(4-(6-((4-cyano-2-fluorobenzyl)oxy)pyridin-2-yl)-2-fluorobenzyl)-1-(2-(trifluoromethoxy)ethyl)-1H-benzo[d]imidazole-6-carboxylic acid]
0.00522	0.17	N#Cc1ccc(COc2cccc(-c3ccc(Cc4nc5ccc(C(=O)O)cc5n4CCOC(F)F)c(F)c3)n2)c(F)c1 [Example 324, 2-(4-(6-((4-cyano-2-fluorobenzyl)oxy)pyridin-2-yl)-2-fluorobenzyl)-1-(2-(difluoromethoxy)ethyl)-1H-benzo[d]imidazole-6-carboxylic acid]
0.00773	0.18	CO[C@H](C)Cn1c(Cc2ccc(-c3cccc(OCc4ccc(C#N)cc4F)n3)cc2F)nc2ccc(C(=O)O)cc21 [Example 327, (R)-2-(4-(6-((4-cyano-2-fluorobenzyl)oxy)pyridin-2-yl)-2-fluorobenzyl)-1-(2-methoxypropyl)-1H-benzo[d]imidazole-6-carboxylic acid]
0.0123	0.24	CO[C@@H](C)Cn1c(Cc2ccc(-c3cccc(OCc4ccc(C#N)cc4F)n3)cc2F)nc2ccc(C(=O)O)cc21 [Example 331, (S)-2-(4-(6-((4-cyano-2-fluorobenzyl)oxy)pyridin-2-yl)-2-fluorobenzyl)-1-(2-methoxypropyl)-1H-benzo[d]imidazole-6-carboxylic acid]
0.175	0.23	COCCn1c(Cc2ccc(-c3cccc(OCc4ccc(C#N)cc4F)n3)cc2F)nc2c(OC)cc(C(=O)O)cc21 [Example 345, 2-(4-(6-((4-cyano-2-fluorobenzyl)oxy)pyridin-2-yl)-2-fluorobenzyl)-4-methoxy-1-(2-methoxyethyl)-1H-benzo[d]imidazole-6-carboxylic]
0.0946	0.47	COCCn1c(Cc2ccc(-c3cccc(OCc4ccc(C#N)cc4OC4CC4)n3)cc2F)nc2ccc(C(=O)O)cc21 [Example 346, 2-(4-(6-((4-cyano-2-cyclopropoxybenzyl)oxy)pyridin-2-yl)-2-fluorobenzyl)-1-(2-methoxyethyl)-1H-benzo[d]imidazole-6-carboxylic acid]
0.0926	0.33	CC(C)n1c(Cc2ccc(-c3cccc(OCc4ccc(C#N)cc4F)n3)cc2F)nc2ccc(C(=O)O)cc21 [Example 347, 2-(4-(6-((4-cyano-2-fluorobenzyl)oxy)pyridin-2-yl)-2-fluorobenzyl)-1-isopropyl-1H-benzo[d]imidazole-6-carboxylic acid]
